Experimental data as given in BigSolDB 2.1.

CCCCCCCCCCCC(=O)O
solubility (mole fraction)
Conditions	in ethanol	in isobutanol	in isopentanol	in methanol	in n-butanol	in n-hexanol	in n-pentanol	in n-propanol
276.17 K	0.0422	0.0659	0.0814	0.0318	0.0646	0.0827	0.0742	0.054
279.16 K	0.0554	0.0817	0.1	0.0419	0.0801	0.0991	0.0907	0.0685
282.16 K	0.0739	0.102	0.122	0.0555	0.0999	0.122	0.113	0.0859
285.15 K	0.0924	0.128	0.15	0.0723	0.123	0.151	0.137	0.108
288.15 K	0.119	0.158	0.179	0.0942	0.151	0.183	0.167	0.135
291.14 K	0.151	0.195	0.217	0.123	0.188	0.22	0.204	0.169
294.14 K	0.194	0.238	0.263	0.161	0.229	0.266	0.247	0.21
297.13 K	0.244	0.289	0.315	0.208	0.283	0.322	0.301	0.261
300.13 K	0.305	0.351	0.376	0.264	0.338	0.39	0.368	0.319
303.12 K	0.386	0.422	0.446	0.341	0.418	0.464	0.435	0.399
306.12 K	0.482	0.514	0.537	0.433	0.51	0.549	0.53	0.488
